{"source": "paper PMC6525019", "about": "(Cell chemical biology, 2019)", "key": {"RibBX [1]": {"biological_target": "T1, RibBX (Acinetobacter baumannii, UniProt V5V8R9)", "T1 sequence (V5V8R9 1-373)": "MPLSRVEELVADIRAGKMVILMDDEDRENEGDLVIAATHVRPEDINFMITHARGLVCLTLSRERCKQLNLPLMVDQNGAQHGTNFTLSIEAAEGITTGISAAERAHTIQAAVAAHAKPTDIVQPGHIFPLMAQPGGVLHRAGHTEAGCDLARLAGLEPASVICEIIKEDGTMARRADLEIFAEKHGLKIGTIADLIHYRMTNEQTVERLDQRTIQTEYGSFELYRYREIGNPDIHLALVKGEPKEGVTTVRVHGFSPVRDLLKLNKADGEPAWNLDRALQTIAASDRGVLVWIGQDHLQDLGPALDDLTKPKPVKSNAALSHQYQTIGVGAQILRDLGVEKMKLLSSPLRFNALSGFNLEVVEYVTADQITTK", "assay": "isothermal titration calorimetry", "assay_type": "binding"}, "RibBX [2]": {"biological_target": "T1, RibBX", "assay": "colorimetric DHBPS assay", "assay_type": "biochemical"}, "[3]": {"biological_target": "A. baumannii RibBX (3,4-dihydroxy-2-butanone 4-phosphate synthase (DHBPS; RibB) fusion protein) (Acinetobacter baumannii ATCC 17978)", "assay": "SEC"}, "[4]": {"biological_target": "A. baumannii RibBX (3,4-dihydroxy-2-butanone 4-phosphate synthase (DHBPS; RibB) fusion protein) (Acinetobacter baumannii ATCC 17978)", "assay": "crystal structure"}}, "data": [{"compound": "Cc1cc2nc3c(=O)[nH]c(=O)nc-3n(C[C@H](O)[C@H](O)[C@H](O)COP(=O)(O)O)c2cc1C", "note": "[FMN]", "values": [{"measurement": "Kd", "setting": "RibBX [1]", "value": 0.714, "unit": "µM"}, {"measurement": "Ki", "setting": "RibBX [2]", "value": 7.8, "unit": "µM"}]}, {"compound": "A. baumannii RibBX (3,4-dihydroxy-2-butanone 4-phosphate synthase (DHBPS; RibB) fusion protein) (enzyme)", "values": [{"measurement": "stoichiometry N", "setting": "[3]", "value": 2}, {"measurement": "stoichiometry N", "setting": "[4]", "value": 4}]}]}
